Test results from US8158829B2, “Organic sulfur compound and its use for controlling harmful arthropod” (Sumitomo Chemical Company, Limited, priority 2007, dated 2012).

The compounds below were run on Blattella germanica (assay: Test Example 3: filter paper with sucrose bait, Blattella germanica male imagoes). Conditions: 500 ppm, 0.7 ml on filter paper; 2 male imagoes; after 6 days.
Type: in vivo
Protocol: Preparations of the present compounds (2), (3), (5) and (6) obtained according to Formulation Example 11 were diluted so that the active ingredient concentration was 500 ppm to obtain test solutions.
A filter paper having a diameter of 5.5 cm was spread on the bottom of a polyethylene cup having a diameter of 5.5 cm and 0.7 ml of the test solution was added dropwise onto the filter paper. As a bait 30 mg of sucrose was uniformly placed on the filter paper. Into the polyethylene cup, 2 male imagoes of Blattella germanica were released and the cup was sealed with a lid. After 6 days, the number of surviving Blattella germanica was examined and the death rate of the pest was calculated.

Structure (SMILES)	death rate of the pest [%]
COC(=O)C(Cl)(CCC(F)(Cl)C(F)(F)Cl)S(=O)(=O)CCC(F)(F)F (stereo not shown) [present compound (2), methyl 2,5,6-trichloro-5,6,6-trifluoro-2-(3,3,3-trifluoropropylsulfonyl)hexanoate]	100
NC(=O)C(Cl)(CCC(F)(Cl)C(F)(F)Cl)S(=O)(=O)CCC(F)(F)F (stereo not shown) [present compound (3), 2,5,6-trichloro-5,6,6-trifluoro-2-(3,3,3-trifluoropropylsulfonyl)hexanamide]	100
COC(=O)C(Cl)(CCC(F)(F)C(F)(F)Br)S(=O)(=O)CCC(F)(F)F (stereo not shown) [present compound (5), methyl 6-bromo-2-chloro-5,5,6,6-tetrafluoro-2-(3,3,3-trifluoropropylsulfonyl)hexanoate]	100
NC(=O)C(Cl)(CCC(F)(F)C(F)(F)Br)S(=O)(=O)CCC(F)(F)F (stereo not shown) [present compound (6), 6-bromo-2-chloro-5,5,6,6-tetrafluoro-2-(3,3,3-trifluoropropylsulfonyl)hexanamide]	100
